From patent publication US11426371B2, “Compositions and methods for treating cancer” (University of Virginia Patent Foundation, priority 2017, dated 2022) come the findings set out here.

The test system of assay [1] is normal samples (PBMCs and/or CD34+ cells). The assay can be described thus: Viability of normal samples, MTS and Cell Titer Glo (FIG. 4, Table 2). In kind it is cell-based. The conditions noted are these: 24 hours. The protocol: (§1) AML cell lines and normal samples (PBMCs and/or CD34+ cells) were treated for 24 hours with SACLAC (FIG. 4A-7 cell lines) and similar AC inhibitor SABRAC (2-bromo-N-((2S,3R)-1,3-dihydroxyoctadecan-2-yl)acetamide) (FIG. 4B-four cell lines). Viability was assessed by MTS and Cell Titer Glo viability assays. EC50 values (FIG. 4C) were graphed to visualize fold-change between AML and normal cells with treatment of each compound. […] Cells tested for SABRAC were HL60/VCR and OCI-AML2 AML cell lines and two normal PBMC control samples (PBMC1 and PBMC2). The same four cell types were tested for SACLAC, as well as the AML cell line THP-1 and two normal CD34+ cell control samples (CD34+1 and CD34+2).
(§2) Next, we tested the toxicity of SACLAC and a similar published AC inhibitor SABRAC^17 to normal hematopoietic cells to ensure that AML cells are selectively targeted by the compound (FIG. 4A). […] This degree of selectivity was unexpected but extremely important for potential clinical use. […] This remarkable increase in selectivity is a surprising discovery that greatly exceeds the predicted similarity in compound behavior that one may expect with a simple substitution of one halogen for another (Cl for Br).

Assay [2] deals with AML cell lines (HL60/VCR, OCI-AML2, THP-1). The assay can be described thus: Viability of AML cell lines, MTS and Cell Titer Glo (FIGS. 2, 4, Table 2). In kind it is cell-based, human. The conditions noted are these: 24 hours. The protocol:
Representative human AML cell lines (FIG. 2A; upper and lower panels) HL60/VCR and (FIG. 2B; upper and lower panels) OCI-AML2 were treated with SACLAC for 24 and 48 hours. Viability was assessed by MTS assay at 24 and 48 hours and apoptosis was assessed by flow cytometry at 48 hours. Upper panels represent % viability and lower panels indicate % apoptosis.
as §1, §2

Read-outs that look alike come from different tables or passages of the source.

On to `CCCCCCCCCCCCCCC[C@@H](O)[C@H](CO)NC(=O)CBr` [SABRAC, 2-bromo-N-((2S,3R)-1,3-dihydroxyoctadecan-2-yl)acetamide, reference compound], for which the EC50 stood at 600 nM in assay [1] (SACLAC: PBMC1, PBMC2, CD34+1, CD34+2, SABRAC: PBMC1, PBMC2, order of samples not given, read-out: EC50, single normal samples (FIG. 4A, 4B)); 450 nM in assay [1] (PBMC, 24 h, mean of normal samples (PBMCs and/or CD34+ cells), read-out: EC50 Normal); 360 nM in assay [2] (Homo sapiens, 24 h, mean of AML cell lines, read-out: EC50 AML). Also, the “Fold Change” value in assay [2] (EC50 Normal versus EC50 AML) is recorded as 1.25.

One may read the EC50 as the midpoint of the concentration-response curve.
